# Assay results published in ChEMBL document CHEMBL5726498, “Substituted benzothiophenyl derivatives as GPR40 agonists for the treatment of type II diabetes” (2017).
# Molecular target: Free fatty acid receptor 1 (Homo sapiens, UniProt O14842)
# Experiment: Calcium Flux Assay: Compounds were tested in a calcium flux assay using transfected HEK293 cells stably expressing either human GPR40 or rat GPR40. Human GPR40 expressing cells were cultured in DMEM-High Glucose media supplemented with 10% fetal bovine serum, 1×L-Glutamine, 1× Penicillin/Streptomycin and 500 μg/mL G418. Rat GPR40 expressing cells were cultured in DMEM-High Glucose media supplemented with 10% fetal bovine serum and 1 μg/mL puromycin. Cells were plated into poly-D-lysine coated 384-well plates and cultured overnight in a 37° C. humidified tissue culture incubator under 5% CO2/[…] atmosphere. On the day of the experiment, the culture media was replaced with assay buffer (HBSS, 20 mM HEPES, 0.1% BSA) and the cells incubated at 37° C. for 1 h. Calcium-sensitive fluorescent dye (Fluo 8 No-Wash Calcium Dye, ABD Bioquest) was then added and the cells incubated for another 30 min at 37° C. followed by 15 min at room temperature while protected from the light. The cell plate and a plate of diluted compounds of Formula (I) were loaded into a fluorescent plate reader that added compounds onto the cells while measuring the fluorescence intensity of each well.
# Chain of Free fatty acid receptor 1 (O14842 whole entry): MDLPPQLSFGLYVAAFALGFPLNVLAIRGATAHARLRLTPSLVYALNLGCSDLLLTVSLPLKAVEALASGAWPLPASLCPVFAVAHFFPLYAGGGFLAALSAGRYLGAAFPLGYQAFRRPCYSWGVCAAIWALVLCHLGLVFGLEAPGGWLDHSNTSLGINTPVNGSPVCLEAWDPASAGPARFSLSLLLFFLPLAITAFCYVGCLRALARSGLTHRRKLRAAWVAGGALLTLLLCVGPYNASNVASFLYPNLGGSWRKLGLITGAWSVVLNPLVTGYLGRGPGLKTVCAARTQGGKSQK
smiles,measurement,value
CC#C[C@@H](CC(=O)O)c1ccc(OCc2ccc3scc(-c4ccccc4S(C)(=O)=O)c3c2)cc1,EC50,0.015 µM
